Test results: patent US20150105252A1, “SUBSTITUTED PYRAZOLES AS HERBICIDES” (E I DU PONT DE NEMOURS AND COMPANY, priority 2013, published 2015)

What was measured:
corn [1] = test: Test A preemergence; format: in vivo, Zea mays; conditions: preemergence
Outline: (§1)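 Seeds were sown in a loam soil–sand blend and given a directed soil spray preemergence; postemergence plants at 2–10 cm, one- to two-leaf stage, were sprayed with compound in non-phytotoxic solvent with surfactant. After about 10 days in a greenhouse, injury was visually rated against untreated controls (0 = no effect, 100 = complete control).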

corn [2] = test: Test A postemergence; format: in vivo, Zea mays
Outline: as §1

ducksalad = test: Test B flood; format: in vivo, Heteranthera limosa; conditions: 250 g ai/ha, visual rating on 0 to 100 scale (0 no effect, 100 complete control), 13 to 15 days
Outline: (§2)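 Each compound is applied to the floodwater of pots holding 2-leaf seedlings, water standing 3 cm over the soil throughout. Plants stay in a greenhouse 13 to 15 days before visual scoring against controls from 0 (no effect) to 100 (complete control).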

pigweed [3] = test: Test A preemergence; format: in vivo, Amaranthus retroflexus; conditions: preemergence
Outline: as §1

rice = test: Test B flood; format: in vivo, Oryza sativa; conditions: 250 g ai/ha, visual rating on 0 to 100 scale (0 no effect, 100 complete control), 13 to 15 days
Outline: as §2

wheat [4] = test: Test A postemergence; format: in vivo, Triticum aestivum
Outline: as §1

wheat [5] = test: Test A preemergence; format: in vivo, Triticum aestivum; conditions: preemergence
Outline: as §1

foxtail, giant [6] = test: Test A postemergence; format: in vivo, Setaria faberii
Outline: as §1

crabgrass, large [7] = test: Test A preemergence; format: in vivo, Digitaria sanguinalis; conditions: preemergence
Outline: as §1

pigweed [8] = test: Test A postemergence; format: in vivo, Amaranthus retroflexus
Outline: as §1

barnyardgrass [9] = test: Test B flood; format: in vivo, Echinochloa crus-galli; conditions: 250 g ai/ha, visual rating on 0 to 100 scale (0 no effect, 100 complete control), 13 to 15 days
Outline: as §2

velvetleaf [10] = test: Test A preemergence; format: in vivo, Abutilon theophrasti; conditions: preemergence
Outline: as §1

barnyardgrass [11] = test: Test A preemergence; format: in vivo, Echinochloa crus-galli; conditions: preemergence
Outline: as §1

morningglory [12] = test: Test A postemergence; format: in vivo, Ipomoea spp.
Outline: as §1

velvetleaf [13] = test: Test A postemergence; format: in vivo, Abutilon theophrasti
Outline: as §1

foxtail, giant [14] = test: Test A preemergence; format: in vivo, Setaria faberii; conditions: preemergence
Outline: as §1

morningglory [15] = test: Test A preemergence; format: in vivo, Ipomoea spp.; conditions: preemergence
Outline: as §1

barnyardgrass [16] = test: Test A postemergence; format: in vivo, Echinochloa crus-galli
Outline: as §1

crabgrass, large [17] = test: Test A postemergence; format: in vivo, Digitaria sanguinalis
Outline: as §1

sedge, umbrella = test: Test B flood; format: in vivo, Cyperus difformis; conditions: 250 g ai/ha, visual rating on 0 to 100 scale (0 no effect, 100 complete control), 13 to 15 days
Outline: as §2

[18] = 125 g ai/ha, visual injury approx. 10 days after treatment
[19] = 500 g ai/ha, visual injury after approx. 10 days, 0 to 100 scale (0 no effect, 100 complete control)
[20] = Postemergence, 125 g ai/ha, 0 to 100 scale, 0 no effect, 100 complete control
[21] = Postemergence, 500 g ai/ha, 0 to 100 scale (0 no effect, 100 complete control)
[22] = 125 g ai/ha, visual injury, 0 to 100 scale, approx. 10 days
[23] = Postemergence, 500 g ai/ha, visual rating after approx. 10 days, 0 to 100 scale (0 no effect, 100 complete control)
[24] = postemergence, 125 g ai/ha, about 10 days, visual rating on 0 to 100 scale (0 no effect, 100 complete control)

CCc1cc(C(=O)NCC(F)(F)F)nn1Oc1cccc(C(F)(F)F)c1 [Compound 218]
Corn plant response rating (0 to 100 scale) (corn [1]; [18]): 0 | Corn plant response rating (corn [1]; [19]): 0 | Corn plant response rating (corn [2]; [20]): 10 | Corn plant response rating (corn [2]; [21]): 20 | Plant response rating, Ducksalad (ducksalad): 0 | Pigweed plant response rating (0 to 100 scale) (pigweed [3]; [18]): 0 | Plant response rating, Rice (rice): 0 | Wheat plant response rating (wheat [4]; [20]): 0 | Wheat plant response rating (wheat [4]; [21]): 10 | Wheat plant response rating (0 to 100 scale) (wheat [5]; [18]): 0 | Foxtail, Giant plant response rating (foxtail, giant [6]; [20]): 20 | Foxtail, Giant plant response rating (foxtail, giant [6]; [21]): 30 | Crabgrass, Large plant response rating (0 to 100 scale) (crabgrass, large [7]; [18]): 10 | Crabgrass, Large plant response rating (crabgrass, large [7]; [19]): 80 | Pigweed plant response rating (pigweed [8]; [20]): 50 | Pigweed plant response rating (pigweed [8]; [21]): 80 | Plant response rating, Barnyardgrass (barnyardgrass [9]): 0 | Velvetleaf plant response rating (0 to 100 scale) (velvetleaf [10]; [18]): 0 | Barnyardgrass plant response rating (0 to 100 scale, 0 is no effect, 100 is complete control) (barnyardgrass [11]; [18]): 0 | Barnyardgrass plant response rating (barnyardgrass [11]; [19]): 40 | Morningglory plant response rating (morningglory [12]; [20]): 50 | Morningglory plant response rating (morningglory [12]; [21]): 100 | Velvetleaf plant response rating (velvetleaf [13]; [20]): 0 | Velvetleaf plant response rating (velvetleaf [13]; [21]): 40 | Foxtail, Giant plant response rating (0 to 100 scale) (foxtail, giant [14]; [18]): 0 | Foxtail, Giant plant response rating (foxtail, giant [14]; [19]): 40 | Morningglory plant response rating (0 to 100 scale) (morningglory [15]; [18]): 0 | Barnyardgrass plant response rating (barnyardgrass [16]; [20]): 0 | Barnyardgrass plant response rating (barnyardgrass [16]; [21]): 20 | Crabgrass, Large plant response rating (crabgrass, large [17]; [20]): 20 | Crabgrass, Large plant response rating (crabgrass, large [17]; [21]): 40 | Plant response rating, Sedge, Umbrella (sedge, umbrella): 0

CCCNC(=O)c1cc(CC)n(Cc2cc(C(F)(F)F)nn2CC)n1 [Compound 117]
Corn plant response rating (corn [1]; [22]): 0 | Corn plant response rating (corn [1]; [19]): 10 | Corn plant response rating (corn [2]; [23]): 50 | Corn plant response rating (corn [2]; [24]): 20 | Plant response rating, Ducksalad (ducksalad): 50 | Pigweed plant response rating (pigweed [3]; [22]): 90 | Pigweed plant response rating (pigweed [3]; [19]): 100 | Plant response rating, Rice (rice): 20 | Wheat plant response rating (wheat [4]; [23]): 0 | Wheat plant response rating (wheat [4]; [24]): 0 | Wheat plant response rating (wheat [5]; [22]): 0 | Wheat plant response rating (wheat [5]; [19]): 0 | Foxtail, Giant plant response rating (foxtail, giant [6]; [23]): 90 | Foxtail, Giant plant response rating (foxtail, giant [6]; [24]): 20 | Crabgrass, Large plant response rating (crabgrass, large [7]; [22]): 90 | Crabgrass, Large plant response rating (crabgrass, large [7]; [19]): 100 | Pigweed plant response rating (pigweed [8]; [23]): 80 | Pigweed plant response rating (pigweed [8]; [24]): 50 | Plant response rating, Barnyardgrass (barnyardgrass [9]): 0 | Velvetleaf plant response rating (velvetleaf [10]; [22]): 0 | Velvetleaf plant response rating (velvetleaf [10]; [19]): 0 | Barnyardgrass plant response rating (barnyardgrass [11]; [22]): 30 | Barnyardgrass plant response rating (barnyardgrass [11]; [19]): 80 | Morningglory plant response rating (morningglory [12]; [23]): 90 | Morningglory plant response rating (morningglory [12]; [24]): 60 | Velvetleaf plant response rating (velvetleaf [13]; [23]): 80 | Velvetleaf plant response rating (velvetleaf [13]; [24]): 40 | Foxtail, Giant plant response rating (foxtail, giant [14]; [22]): 70 | Foxtail, Giant plant response rating (foxtail, giant [14]; [19]): 100 | Morningglory plant response rating (morningglory [15]; [22]): 30 | Morningglory plant response rating (morningglory [15]; [19]): 100 | Barnyardgrass plant response rating (barnyardgrass [16]; [23]): 80 | Barnyardgrass plant response rating (barnyardgrass [16]; [24]): 40 | Crabgrass, Large plant response rating (crabgrass, large [17]; [23]): 80 | Crabgrass, Large plant response rating (crabgrass, large [17]; [24]): 20 | Plant response rating, Sedge, Umbrella (sedge, umbrella): 75
